Results on eight molecules are retold here after PubChem BioAssay (NCI).

Test systems include ACHN renal; CAKI-1 renal; DU-145 prostate; LOX IMVI melanoma; NCI-H226 lung; OVCAR-3 ovarian; OVCAR-5 ovarian; SK-OV-3 ovarian; SNB-75 CNS; UACC-257 melanoma.
Common to all, as to experiment: NCI tumour cell line growth inhibition, 48 h

Each structure is given as a SMILES string.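 Briefly, cells in 96-well plates were exposed to five compound concentrations for 48 h, and endpoints were estimated by linear interpolation. GI50 = concentration required for 50% inhibition of growth. TGI: total growth inhibition.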

For `COc1ccc(/C=C/c2n[nH]c3ccc(N4CCOC4=O)cc23)cc1`, the GI50 in the assay on ACHN renal was 2.64 µM; in the assay with CAKI-1 renal, 2.48 µM; in the assay on DU-145 prostate, 3.43 µM; in the assay on LOX IMVI melanoma, 2.52 µM; with NCI-H226 lung, 2.44 µM; in the assay on OVCAR-3 ovarian, 2.97 µM. Also, the GI50 in the assay on OVCAR-5 ovarian is 3.16 µM; in the assay on SK-OV-3 ovarian it was 2.82 µM; in the assay with SNB-75 CNS it was 2.5 µM; in the assay with UACC-257 melanoma, 3.6 µM. Further, the TGI is 23.2 µM in the assay on ACHN renal; more than 100 µM in the assay with CAKI-1 renal; more than 100 µM with DU-145 prostate; 27.7 µM with LOX IMVI melanoma; 15.4 µM in the assay on NCI-H226 lung; 9.42 µM in the assay on OVCAR-3 ovarian. For the same molecule, the TGI with OVCAR-5 ovarian came out at 59.8 µM; with SK-OV-3 ovarian, 9.57 µM; in the assay on SNB-75 CNS, 18 µM; in the assay with UACC-257 melanoma it was 9.3 µM.

Regarding `COC1=CC(c2ccc[nH]2)=N/C1=C\c1[nH]c(C)c(C(=O)CCCCC(=O)Nc2ccccc2)c1C`, the GI50 in the assay on ACHN renal was 10.3 µM; in the assay with CAKI-1 renal, 4.75 µM; in the assay with DU-145 prostate, 1.2 µM; with LOX IMVI melanoma it was 1.13 µM; in the assay with NCI-H226 lung, 1.85 µM; in the assay on OVCAR-3 ovarian, 1.21 µM. Further, the GI50 with OVCAR-5 ovarian is 3.14 µM; in the assay with SK-OV-3 ovarian it was 18.3 µM; with SNB-75 CNS, 2.8 µM; in the assay on UACC-257 melanoma, 12.2 µM. Further, the TGI with ACHN renal stood at 24 µM; in the assay with CAKI-1 renal, 11.9 µM; in the assay with DU-145 prostate it was 2.5 µM; with LOX IMVI melanoma, 2.34 µM; in the assay on NCI-H226 lung it was 6.11 µM; with OVCAR-3 ovarian it was 2.51 µM. Also, the TGI in the assay with OVCAR-5 ovarian is 16.5 µM; in the assay with SK-OV-3 ovarian, 40.1 µM; in the assay on SNB-75 CNS, 11.4 µM; in the assay with UACC-257 melanoma, 34 µM.

Turning to `NS(=O)(=O)c1ccc(N2N=C3c4ccccc4CC3C2c2ccc(Cl)cc2)cc1` (stereo not drawn), the GI50 is 17.5 µM in the assay on ACHN renal; 18.2 µM in the assay with CAKI-1 renal; 14.2 µM with DU-145 prostate; 18 µM with LOX IMVI melanoma; 10.9 µM with NCI-H226 lung; 17.3 µM in the assay with OVCAR-3 ovarian. Also, the GI50 in the assay on OVCAR-5 ovarian is 15.9 µM; in the assay on SK-OV-3 ovarian it was 12.4 µM; with SNB-75 CNS, 2.97 µM; with UACC-257 melanoma, 11.4 µM. Moreover, the TGI in the assay with ACHN renal amounted to 31.6 µM; in the assay with CAKI-1 renal, 32.8 µM; in the assay with DU-145 prostate, 36.7 µM; with LOX IMVI melanoma, 36.5 µM; in the assay on NCI-H226 lung, 38.7 µM; in the assay with OVCAR-3 ovarian it was 34.7 µM. For the same molecule, the TGI in the assay on OVCAR-5 ovarian worked out at 56.5 µM; in the assay on SK-OV-3 ovarian, 49.4 µM; in the assay on SNB-75 CNS, 7.94 µM; in the assay with UACC-257 melanoma, 32.6 µM.

Consider `COc1cc(/C=C2\COc3ccc(O)c(O)c3C2=O)cc(OC)c1`, for which the GI50 in the assay on ACHN renal is 1.54 µM; in the assay with CAKI-1 renal, 1.27 µM; with DU-145 prostate it was 1.71 µM; in the assay with LOX IMVI melanoma it was 1.28 µM; in the assay with NCI-H226 lung, 4.94 µM; in the assay on OVCAR-3 ovarian, 0.596 µM. For the same molecule, the GI50 in the assay with OVCAR-5 ovarian was 3.03 µM; in the assay with SK-OV-3 ovarian, 4.57 µM; in the assay on SNB-75 CNS, 2.42 µM; in the assay on UACC-257 melanoma, 1.79 µM. Besides, the TGI in the assay with ACHN renal came to 3.74 µM; in the assay on CAKI-1 renal, 3.04 µM; in the assay with DU-145 prostate, 4.26 µM; in the assay on LOX IMVI melanoma, 2.67 µM; in the assay on NCI-H226 lung, 28.2 µM; in the assay on OVCAR-3 ovarian it was 1.92 µM. Further, the TGI is 11.5 µM in the assay on OVCAR-5 ovarian, 17.3 µM with SK-OV-3 ovarian, 10.9 µM in the assay on SNB-75 CNS and 4.97 µM with UACC-257 melanoma.

As for `NCCNC(=S)S`, the TGI in the assay on ACHN renal, in the assay on CAKI-1 renal, in the assay on DU-145 prostate, in the assay on LOX IMVI melanoma, with NCI-H226 lung and with OVCAR-3 ovarian was more than 100 µM each time. Further, the TGI in the assay with OVCAR-5 ovarian, with SK-OV-3 ovarian, with SNB-75 CNS and in the assay with UACC-257 melanoma was more than 100 µM each time.

As to `N#Cc1ccnc(N2C(=O)CC[C@H]2C(=O)N(c2cncc(F)c2)[C@H](C(=O)NC2CC(F)(F)C2)c2ccccc2Cl)c1`, the GI50 is more than 100 µM with ACHN renal; more than 100 µM with CAKI-1 renal; 82.5 µM in the assay with DU-145 prostate; 52.6 µM in the assay on LOX IMVI melanoma; more than 100 µM in the assay on NCI-H226 lung; 63.9 µM with OVCAR-3 ovarian. In addition, the GI50 is more than 100 µM in the assay on OVCAR-5 ovarian, more than 100 µM with SK-OV-3 ovarian, 16.7 µM in the assay with SNB-75 CNS and more than 100 µM in the assay on UACC-257 melanoma. The TGI in the assay on ACHN renal, in the assay with CAKI-1 renal, in the assay on DU-145 prostate, with LOX IMVI melanoma, with NCI-H226 lung and in the assay on OVCAR-3 ovarian was more than 100 µM each time. For the same molecule, the TGI with OVCAR-5 ovarian, in the assay on SK-OV-3 ovarian, in the assay with SNB-75 CNS and in the assay on UACC-257 melanoma was more than 100 µM each time.

`CCOC(=O)c1sc(Nc2ccc(Cl)cc2)nc1C`: the GI50 with ACHN renal is 1.68 µM; with CAKI-1 renal it was 2.09 µM; with DU-145 prostate, 2.47 µM; in the assay on LOX IMVI melanoma, 1.49 µM; with NCI-H226 lung it was 1.76 µM; with OVCAR-3 ovarian, 1.69 µM. The GI50 in the assay on OVCAR-5 ovarian is 2.08 µM; in the assay on SK-OV-3 ovarian, 2.44 µM; in the assay on SNB-75 CNS it was 1.43 µM; in the assay with UACC-257 melanoma, 2.11 µM. In addition, the TGI in the assay on ACHN renal worked out at 3.88 µM; in the assay with CAKI-1 renal it was 6.51 µM; with DU-145 prostate, 9.04 µM; with LOX IMVI melanoma, 2.86 µM; in the assay with NCI-H226 lung, 4.46 µM; in the assay on OVCAR-3 ovarian, 3.92 µM. Besides, the TGI with OVCAR-5 ovarian amounted to 6.63 µM; in the assay with SK-OV-3 ovarian, 6.8 µM; in the assay on SNB-75 CNS, 4.24 µM; in the assay with UACC-257 melanoma, 4.67 µM.

For `COC(=O)C1=C(C(=O)OC)C23C=C(C)C1C2=C(C)C1(CC1)[C@@](C)(O)C3=O` (stereo partly drawn), the GI50 is 0.416 µM with ACHN renal; 0.197 µM in the assay with DU-145 prostate; 0.358 µM in the assay with LOX IMVI melanoma; 0.438 µM with NCI-H226 lung; 0.336 µM in the assay on OVCAR-3 ovarian; 0.365 µM in the assay with OVCAR-5 ovarian. Also, the GI50 with SK-OV-3 ovarian was 0.25 µM; in the assay on SNB-75 CNS it was 0.198 µM; in the assay on UACC-257 melanoma it was 0.864 µM. Also, the TGI was more than 100 µM in the assay with ACHN renal; more than 100 µM with DU-145 prostate; 2.89 µM in the assay with LOX IMVI melanoma; 3.07 µM in the assay with NCI-H226 lung; 2.12 µM in the assay on OVCAR-3 ovarian; 8.89 µM in the assay on OVCAR-5 ovarian. In addition, the TGI with SK-OV-3 ovarian turned out to be 0.7 µM; in the assay with SNB-75 CNS it was 0.547 µM; with UACC-257 melanoma, 3.82 µM.
